Assay results taken from ChEMBL document CHEMBL5247684, “Novel C-Linked Isoquinoline Amides as LRRK2 Inhibitors for Treating Parkinson's Disease” (ACS Med Chem Lett, 2023).

Target: Leucine-rich repeat serine/threonine-protein kinase 2 (Homo sapiens, UniProt Q5S007, G2019S)
Experiment: Inhibition of GST20-tagged truncated human LRRK2 G2019S mutant using fluorescein labeled LRRKtide peptide as substrate by Lantha screen assay

Sequence of Leucine-rich repeat serine/threonine-protein kinase 2 (Q5S007 whole entry G2019S, the tested form may be a part): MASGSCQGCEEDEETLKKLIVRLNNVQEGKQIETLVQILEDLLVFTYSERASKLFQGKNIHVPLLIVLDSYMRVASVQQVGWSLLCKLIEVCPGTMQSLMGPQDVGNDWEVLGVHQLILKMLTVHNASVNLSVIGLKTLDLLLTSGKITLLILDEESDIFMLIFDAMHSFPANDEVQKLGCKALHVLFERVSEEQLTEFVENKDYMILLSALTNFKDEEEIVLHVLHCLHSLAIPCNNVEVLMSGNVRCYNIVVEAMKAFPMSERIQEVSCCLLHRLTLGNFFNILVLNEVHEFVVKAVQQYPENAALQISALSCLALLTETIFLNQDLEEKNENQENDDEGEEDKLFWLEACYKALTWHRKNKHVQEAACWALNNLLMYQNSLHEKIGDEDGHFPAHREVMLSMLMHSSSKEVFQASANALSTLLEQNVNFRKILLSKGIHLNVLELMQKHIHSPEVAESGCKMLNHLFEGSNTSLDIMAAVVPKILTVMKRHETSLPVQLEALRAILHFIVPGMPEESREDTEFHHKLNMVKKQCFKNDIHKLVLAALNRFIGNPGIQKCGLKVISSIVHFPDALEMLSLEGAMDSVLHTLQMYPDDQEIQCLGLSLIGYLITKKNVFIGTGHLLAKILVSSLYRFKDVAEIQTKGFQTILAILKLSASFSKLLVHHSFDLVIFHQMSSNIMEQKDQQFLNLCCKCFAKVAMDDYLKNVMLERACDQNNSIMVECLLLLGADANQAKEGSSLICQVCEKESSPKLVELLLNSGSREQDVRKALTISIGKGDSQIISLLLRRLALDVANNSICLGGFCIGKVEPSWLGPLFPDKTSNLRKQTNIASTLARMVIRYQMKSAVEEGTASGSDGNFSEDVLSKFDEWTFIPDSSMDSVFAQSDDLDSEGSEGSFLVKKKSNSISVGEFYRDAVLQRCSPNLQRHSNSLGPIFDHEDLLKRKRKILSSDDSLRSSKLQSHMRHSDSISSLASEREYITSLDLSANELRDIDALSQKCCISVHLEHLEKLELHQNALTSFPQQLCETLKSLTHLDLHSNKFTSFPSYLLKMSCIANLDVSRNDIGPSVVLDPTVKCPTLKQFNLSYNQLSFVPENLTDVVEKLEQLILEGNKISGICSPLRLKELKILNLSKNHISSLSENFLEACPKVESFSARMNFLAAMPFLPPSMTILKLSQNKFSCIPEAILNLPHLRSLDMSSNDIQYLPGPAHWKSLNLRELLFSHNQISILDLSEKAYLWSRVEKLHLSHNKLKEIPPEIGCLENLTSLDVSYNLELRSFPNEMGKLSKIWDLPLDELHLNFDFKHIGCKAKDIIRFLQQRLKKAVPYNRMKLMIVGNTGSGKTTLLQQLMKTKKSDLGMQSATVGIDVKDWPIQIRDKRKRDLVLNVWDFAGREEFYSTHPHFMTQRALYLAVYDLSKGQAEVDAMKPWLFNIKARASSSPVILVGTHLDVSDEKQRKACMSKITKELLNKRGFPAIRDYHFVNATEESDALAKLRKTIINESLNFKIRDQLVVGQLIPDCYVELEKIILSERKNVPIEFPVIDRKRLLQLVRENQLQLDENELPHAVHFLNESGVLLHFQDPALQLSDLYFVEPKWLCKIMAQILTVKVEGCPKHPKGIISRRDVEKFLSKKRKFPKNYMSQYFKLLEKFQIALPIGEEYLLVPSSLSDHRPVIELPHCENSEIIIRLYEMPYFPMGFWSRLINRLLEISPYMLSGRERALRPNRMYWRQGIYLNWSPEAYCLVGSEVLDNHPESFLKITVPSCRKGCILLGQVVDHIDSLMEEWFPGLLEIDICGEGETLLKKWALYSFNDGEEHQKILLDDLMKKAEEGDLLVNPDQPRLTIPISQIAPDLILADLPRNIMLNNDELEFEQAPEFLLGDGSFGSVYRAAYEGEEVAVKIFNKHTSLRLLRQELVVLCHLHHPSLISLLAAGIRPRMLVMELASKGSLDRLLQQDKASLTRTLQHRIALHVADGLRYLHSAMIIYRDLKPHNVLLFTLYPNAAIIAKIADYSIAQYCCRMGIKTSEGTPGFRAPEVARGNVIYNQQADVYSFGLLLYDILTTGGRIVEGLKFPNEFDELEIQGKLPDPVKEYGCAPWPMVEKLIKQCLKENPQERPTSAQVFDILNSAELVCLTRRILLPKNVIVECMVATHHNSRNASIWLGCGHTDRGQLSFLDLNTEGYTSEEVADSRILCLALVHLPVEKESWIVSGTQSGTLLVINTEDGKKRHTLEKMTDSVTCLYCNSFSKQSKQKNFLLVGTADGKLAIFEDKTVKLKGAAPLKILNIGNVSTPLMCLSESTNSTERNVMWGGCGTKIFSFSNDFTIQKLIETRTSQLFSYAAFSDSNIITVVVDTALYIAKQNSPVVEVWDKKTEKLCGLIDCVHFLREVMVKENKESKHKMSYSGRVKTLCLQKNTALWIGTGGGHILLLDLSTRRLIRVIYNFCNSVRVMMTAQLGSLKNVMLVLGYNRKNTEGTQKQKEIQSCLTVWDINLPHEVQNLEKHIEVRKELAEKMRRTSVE

IC50: 0.0813 nM
SMILES: C[C@@]1(N2CC[C@@H](c3cc4cc(NC(=O)C5CC56CC6)ncc4cc3Cl)[C@H](F)C2)COC[C@@H]1O (stereo partly specified)
